Patent US20250241906A1, “ANABOLIC DRUGS STIMULATING TYPE II COLLAGEN PRODUCTION FROM CHONDROCYTES OR THEIR PROGENITORS” (UNIVERSITY OF CENTRAL FLORIDA RESEARCH FOUNDATION, INC., priority 2022, published 2025)

Columns and labels:
[1] = tested on: cartilage (destabilized meniscus model); details: cited from earlier work
[2] = tested on: NF-κB and JAK2/STAT3 signaling; details: monolayer culture; cited from earlier work
[3] = target: type II collagen promoter (COL2A1-Gaussia luciferase) in primary human chondrocytes; experiment: HuCol2gLuc 3D aggregate type II collagen promoter-driven Gaussia luciferase assay; format: cell-based; details: HuCol2gLuc
Description: Chondrogenic Culture. Human COL2A1-GLuc or uninfected cells were thawed and seeded in growth media on synoviocyte matrix at 6,000 cells/cm^2 and expanded to 90-100% confluence in physioxia. Cells were trypsinized (0.25% Trypsin/EDTA; Corning), resuspended in growth media (for monolayer culture) or chondrogenic differentiation media for 3D aggregates (93.24% High-Glucose DMEM (Gibco), 1% dexamethasone 10^−5M (Sigma), 1% ITS+premix (Becton-Dickinson), 1% Glutamax (Hyclone), 1% 100 mM Sodium Pyruvate (Hyclone), 1% MEM Non-Essential Amino Acids (Hyclone), 0.26% L-Ascorbic Acid Phosphate 50 mM (Wako), 0.5% Fungizone (Life Technologies) with TGF-β1 (Peprotech) and seeded as described below.
Generation and Maintenance of 3D aggregates. To generate 3D aggregates, cells were seeded at 50,000 cells per well (in 96-well cell repellent u-bottom plates, GreinerBio) and then centrifuged at 500 RCF, 5 min. For the initial drug screen, aggregates were cultured in basal chondrogenic media (1 ng/ml TGF-β1) alone, with DMSO (vehicle control) or 5 μM of the drug compounds from the NCI library (Natural Products V, NCI). For candidate validation and subsequent studies aggregates were cultured in basal chondrogenic media (10 ng/ml TGF-β1) alone, with DMSO (vehicle control) or compounds as indicated in the results. Aggregates were cultured for three weeks in physioxic conditions, culture medium was sampled and replaced three times a week with fresh medium. An OT-2 (Opentrons) python coded robotic pipette, programmed at an aspiration height of 2 mm from the bottom of the wells and aspiration rate of 40 μl/s was utilized for addition of compound, cell feeding, and media sampling for luciferase assay. After three weeks, cell aggregates were either fixed in neutral buffered formalin for histology or medium removed and aggregates frozen dry (−20° C.) for biochemical assays.
(§1) Luciferase Assay. Conditioned culture medium sampled from aggregates in 96-wells (20 μL/well) was assessed using a stabilized Gaussia Luciferase buffer mix (50 µl/well) for a final concentration of 0.09 M MES, 0.15M Ascorbic Acid, and 4.2 μM Coelenterazine in white 96-well plates. Luminescence was measured in a plate reader (25° C., relative light units (RLU), En Vision plate reader). An OT-2 (Opentrons) python coded robotic pipette was utilized for luciferase buffer addition to white plates (GreinerBio).

[4] = target: type II collagen promoter (COL2A1-GLuc) in primary rabbit chondrocytes; experiment: COL2A1-GLuc primary rabbit chondrocyte 3D aggregate luciferase assay; format: cell-based; details: 0-10 ng/ml
Description: Chondrogenic Culture. Rabbit COL2A1-GLuc were thawed and seeded in growth media at 6000 cells/cm^2 and expanded to 90-100% confluence in physioxia. Cells were trypsinized (0.25% Trypsin/EDTA; Corning), resuspended in basal chondrogenic media (93.24% High-Glucose DMEM (Gibco), 1% dexamethasone 10^−5 M (Sigma), 1% ITS+premix (Becton-Dickinson), 1% Glutamax (Hyclone), 1% 100 mM Sodium Pyruvate (Hyclone), 1% MEM Non-Essential Amino Acids (Hyclone), 0.26% L-Ascorbic Acid Phosphate 50 mM (Wako), 0.5% Fungizone (Life Technologies) with TGF-β1 (Peprotech) and seeded as described below.
Generation and Maintenance of 3D Aggregates. To generate 3D aggregates, cells were seeded at 50,000 cells per well (in 96-well cell repellent u-bottom plates, GreinerBio) and then centrifuged at 500 RCF, 5 min. For the TGF-β1 dose response studies, that serve as positive controls for the reporter cells, aggregates were cultured in basal chondrogenic media and different concentrations of TGF-β1 ranging from 0-10 ng/ml. For the DoE studies, aggregates were cultured in basal chondrogenic media (1 ng/ml TGF-β1) as a control or basal media supplemented with vitamins and minerals (Table 3 and Table 5). Plates were cultured for three weeks in physioxia, media was sampled and replaced three times a week with respective medium. An OT-2 (Opentrons) python coded robotic pipette, programmed at an aspiration height of 2 mm from the bottom of the wells and aspiration rate of 40 μl/s was utilized for media preparation, cell feeding, and media sampling for luciferase assay. After three weeks, cell aggregates were either fixed in neutral buffered formalin for histology or medium removed and aggregates frozen dry (−20° C.) for biochemical assays.
as §1, with “Cell” for “Conditioned”, “the seeded” for “aggregates in”, “at” for “mix (50 µl/well) for”, “units,” for “units (RLU),”

[5] = target: PRG4 (lubricin) promoter in primary human chondrocytes; experiment: HuPRG4gLuc aggregate lubricin promoter-driven Gaussia luciferase assay, TGFβ1 dose response; format: cell-based; details: 0-40 ng/mL
Description: HuPRG4gLuc reporter cell aggregate culture and TGFβ1 dose response. HuPRG4gLuc reporter chondrocytes were thawed from frozen stocks and seeded onto synoviocyte derived matrix coated flasks to expand to confluence (˜5 days, 37° C., 5% CO2 and 5% O2). Upon confluence, cells were trypsinized (0.25% Trypsin/EDTA, 5 min, 37° C.), neutralized with growth media (DMEM/F12 (Gibco) supplemented with 10% FBS (mesenchymal stromal cell selected and 1% penicillin-streptomycin (Hyclone)), then centrifuged (5 min, 500 RCF, room temperature [RT]). Cells were then resuspended in defined chondrogenic media (DMEM-HG 93.24% (Lonza), 1% 10^−5 M dexamethasone (Sigma), 1% ITS+premix (Becton-Dickinson), 1% Glutamax (Hyclone), 1% 100 mM Sodium Pyruvate (Hyclone), 1% MEM Non-Essential Amino Acids (Hyclone), 0.26% 50 mM L-Ascorbic Acid Phosphate (Wako), 0.5% Fungizone (Life Technologies)), and seeded (50,000 cells/well) onto a non-adherent 96-well plate (Greiner Bio), then centrifuged to form cell aggregates (5 min, 500 RCF, RT). […] Media containing the secreted Gaussia luciferase was sampled twice a week for luminescence (section 2.3). […]
Luciferase assessment. As previously described, during the 22-day culture period, luminescence was assessed twice a week. […] Luminescence was read on a plate reader (PerkinElmer EnVision 2104 Multilabel Reader.

HuPRG4gLuc aggregates = experiment: Biochemical assays on HuPRG4gLuc aggregates; format: cell-based, human; details: day 22
Description: Biochemical assays. As previously described, frozen samples were digested in papain (0.025 mg/mL papain in 50 mM sodium phosphate, 2 mM EDTA, 2 mM cysteine) overnight. Hoechst dye was used to quantify the DNA content of the digest, with calf thymus DNA (Sigma) as the standard. Samples were read on a plate reader (Ex365, Em460 nm, SpectraMax iD5, Molecular Devices). Dimethylmethylene blue (5 ml of 3.2 mg/mL DMMB dissolved in 200 proof ethanol added to 1L of 40 mM glycine, 40 mM NaCl at pH 1.5) colorimetric assay was used to quantify GAG content of the digest with absorbance readings at 525 nm and 595 nm (correction). Hydroxyproline (HDP) content was measured for total collagen quantification. Papain digested samples were acid hydrolyzed overnight (10:1 vol/vol, 6M HCl, 110° C.) and then dried overnight (70° C.). Copper sulfate (0.15M) and NaOH (2.5M) were added and incubated (50° C., 5 minutes). Oxidation occurred through 10-minute incubation with hydrogen peroxide (6% H2O2, 50° C.). Sulfuric acid was added (1.5M H2SO4) prior to reaction with Ehrlich's reagent (10% w/v 4-dimethylamino benzaldehyde in 60% isopropanol, 26% perchloric acid, 14% MΩ water) for a final incubation (70° C., 16 minutes). Absorbance was read at 505 nm (SpectraMax iD5, Molecular Devices) with hydroxyproline standard curve generated using hydroxyproline (Sigma). […]

| Compound | decrease in OARSI score [1] | NF-κB and JAK2/STAT3 signaling [2] | EC50 luminescence ([3]; donor 2, day 7) | EC50 luminescence ([3]; donor 2, day 21) | EC50 luminescence ([3]; first donor, day 8, 0-100 ng/ml) | EC50 luminescence ([3]; first donor, day 17) | EC50 luminescence ([4]; Day 7) | EC50 luminescence ([4]; Day 21) | EC50 luminescence ([5]; day 10) | EC50 luminescence ([5]; day 22) | EC50 DNA (HuPRG4gLuc aggregates) | EC50 GAG/DNA (HuPRG4gLuc aggregates) |
| --- | --- | --- | --- | --- | --- | --- | --- | --- | --- | --- | --- | --- |
| NCCc1ccc(O)c(O)c1 [dopamine] | 50% | inhibition of NF-κB and JAK2/STAT3 signaling |  |  |  |  |  |  |  |  |  |  |
| TGFβ1: transforming growth factor beta 1, known stimulator of chondrogenesis, type II collagen and lubricin [reference compound] |  |  | 0.142 ng/mL | 1.868 ng/mL | 0.780 ng/mL | 2.702 ng/mL | 0.17 ng/mL | 0.10 ng/mL | 2.5 ng/mL | 4.2 ng/mL | 2.8 ng/mL | 4.8 ng/mL |
